# In paper PMC10991509, “A phase I study of ATR inhibitor gartisertib (M4344) as a single agent and in combination with carboplatin in patients with advanced solid tumours” (British Journal of Cancer, 2024):
# Like-named read-outs stand apart in the source and are kept apart here.
# What was measured:
# [1] = Plasma pharmacokinetics of gartisertib; format: in vivo, human; conditions: for clearance: read-out: drug clearance
# From the text: The secondary objectives for cohorts A, A2, and B1 were to assess antitumour activity and PK. Endpoints associated with antitumour activity included confirmed best overall response (BOR), according to RECIST v1.1. PK endpoints included PK parameter estimates, derived from plasma concentration-time data. Please see the Supplementary Materials for details on further PK endpoints and assessments as well as the PK assessment schedule (Supplementary Table S2).
# Categorical variables (such as incidence of a TEAE) were summarised using frequency counts and percentages, along with 2-sided exact Clopper–Pearson 95% confidence intervals (CIs). TEAEs observed were summarised by System Organ Class and Preferred Term according to the Medical Dictionary for Regulatory Activities (versions 23.0 and 24.0). Standard non-compartmental methods were used to determine PK parameters.
# Blood samples were collected according to the Schedule of Assessments in order to measure gartisertib (and metabolites where appropriate) plasma concentrations. PK parameters included maximum observed plasma concentration (Cmax), time to reach maximum observed plasma concentration (Tmax), terminal half-life, area under the concentration–time curve (AUC) from time zero extrapolated to infinity, apparent oral clearance, and apparent volume of distribution during the terminal phase as well as Cmax and AUC accumulation ratios. Please see Table S2 for the PK assessment schedule.
# UGT1A1 [2] = target: T1, UGT1A1 (Homo sapiens, UniProt P22309); assay: UGT1A1 inhibition in human liver microsomes; format: in vitro ADME; conditions: value (standard error)
# T1 construct: from tissue; host or cells: human liver microsomes
# T1 sequence (P22309 26-533): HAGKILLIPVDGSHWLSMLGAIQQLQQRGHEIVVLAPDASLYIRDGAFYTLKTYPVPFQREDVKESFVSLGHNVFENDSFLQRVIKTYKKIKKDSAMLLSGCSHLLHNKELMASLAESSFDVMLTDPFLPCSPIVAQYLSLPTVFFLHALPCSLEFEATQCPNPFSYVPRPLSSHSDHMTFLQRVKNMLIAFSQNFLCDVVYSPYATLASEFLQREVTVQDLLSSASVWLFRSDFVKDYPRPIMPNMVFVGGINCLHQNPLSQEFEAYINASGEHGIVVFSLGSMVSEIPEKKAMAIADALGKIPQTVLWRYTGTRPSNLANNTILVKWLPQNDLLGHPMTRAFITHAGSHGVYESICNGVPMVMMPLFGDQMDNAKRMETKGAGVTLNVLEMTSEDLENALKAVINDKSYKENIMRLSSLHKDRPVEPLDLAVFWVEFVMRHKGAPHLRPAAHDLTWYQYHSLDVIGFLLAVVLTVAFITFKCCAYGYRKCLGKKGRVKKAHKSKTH
# UGT1A1 [3] = target: T2, UGT1A1 (Rattus norvegicus, UniProt Q64550); assay: UGT1A1 inhibition in rat liver microsomes; format: in vitro ADME; conditions: value (standard error)
# T2 construct: from tissue; host or cells: rat liver microsomes
# T2 sequence (Q64550 30-535): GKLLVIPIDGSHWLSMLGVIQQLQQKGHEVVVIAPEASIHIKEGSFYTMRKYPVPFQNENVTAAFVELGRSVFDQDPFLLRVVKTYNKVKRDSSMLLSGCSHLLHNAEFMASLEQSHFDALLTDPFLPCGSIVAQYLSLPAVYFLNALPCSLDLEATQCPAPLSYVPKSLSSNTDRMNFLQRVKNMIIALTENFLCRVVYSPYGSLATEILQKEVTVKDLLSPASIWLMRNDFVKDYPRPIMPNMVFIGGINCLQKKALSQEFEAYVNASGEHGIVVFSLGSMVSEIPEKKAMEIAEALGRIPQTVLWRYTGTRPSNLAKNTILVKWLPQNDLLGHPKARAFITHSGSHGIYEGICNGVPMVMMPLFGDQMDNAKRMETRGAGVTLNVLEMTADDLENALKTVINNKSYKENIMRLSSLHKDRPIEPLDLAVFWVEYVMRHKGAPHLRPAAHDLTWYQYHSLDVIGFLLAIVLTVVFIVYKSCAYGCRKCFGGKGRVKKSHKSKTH
smiles,measurement,setting,value
"Nc1nn2cc(F)cnc2c1C(=O)Nc1cncc(F)c1N1CCC(C(=O)N2CCN(C3COC3)CC2)CC1 [gartisertib, Gartisertib]",accumulation following multiple gartisertib doses,[1]; cohort A,less than 2 fold
same,urinary excretion of gartisertib,[1]; cohort A2,minor route of elimination
same,time median plasma concentrations remained above the lower limit of quantification (1.00 ng/mL),"[1]; cohort A2, 250 mg dose",≤ 24 h
same,time median plasma concentrations remained above the lower limit of quantification (1.00 ng/mL),"[1]; cohort A2, doses other than 250 mg",up to 8 hours
same,accumulation compared with day 1,"[1]; cohort A, 450 mg dose",no accumulation
same,accumulation of AUC0-t at day 8 compared with day 1,"[1]; cohort A, 1200 mg dose group",1.9 fold
same,accumulation of Cmax at day 8 compared with day 1,"[1]; cohort A, 1200 mg dose group",1.6 fold
same,time of peak median plasma gartisertib concentration,"[1]; cohort A, 1200 mg group",4 hours post dose
same,time median gartisertib concentrations remained above the lowest level of quantification (1.00 ng/mL),"[1]; cohort A, 450, 700, 1050 and 1200 mg groups",up to 24 hours post dose
same,exposure (Cmax and AUC) versus dose,"[1]; cohorts A, A2, and B1, high variability",dose-proportional exposure
same,clearance,"[1]; human, plasma, oral, cohort A2, day 1",3450 to 8580 mL/min
same,clearance,"[1]; human, plasma, oral, cohort A2, day 8",3980 to 7070 mL/min
same,half-life,"[1]; human, plasma, oral, cohorts A, A2, and B1, read-out: half-life (t1/2)",2 to 5 h
same,half-life,"[1]; human, plasma, oral, cohort A, four highest dose levels, read-out: geometric mean terminal half-life",2.22 to 4.61 h
same,Vd,"[1]; human, plasma, oral, cohort A, four highest dose levels, read-out: volume of distribution based on the terminal elimination phase following extravascular administration",1480 to 4060 L
same,IC50,UGT1A1 [2],8.36 µM
same,IC50,UGT1A1 [3],> 50 µM
